Reference: article PMC9578396, “Intrinsic Antibacterial Activity of Xeruborbactam In Vitro: Assessing Spectrum and Mode of Action” (Antimicrobial Agents and Chemotherapy, 2022)
Converted amounts (≈) assume the structure as drawn. “And” between values parts separate entries of the source, which are not always exact repeats. Equal values may be shown once. Read-outs that look alike come from different tables or passages of the source.

Columns and labels:
Staphylococcus aureus = assay: MIC, Staphylococcus aureus (MSSA, MRSA); assay type: cell-based
From the text: (§1) Bacterial isolates were subjected to broth microdilution susceptibility testing, performed according to Clinical and Laboratory Standards Institute (CLSI) methods ([46]), using panels prepared in-house. Meropenem was purchased from Sandoz, and all other antibiotics were from Sigma-Aldrich. Xeruborbactam was synthesized at Qpex Biopharma, San Diego, CA. Avibactam was purchased from eNovation Chemicals LLC, Bridgewater, NJ, USA; zidebactam was from MedKoo Biosciences, Inc., Morrisville, NC, and nacubactam was from Advanced ChemBlocks, Hayward, CA. Durlobactam was synthesized at Acme Bioscience, Palo Alto, CA, USA.

Enterococcus faecalis = assay: MIC, Enterococcus faecalis; assay type: cell-based
From the text: as §1

[1] = test system: A. baumannii strain ATCC 17978; assay: Fluorescence microscopy, cellular morphology; assay type: cell-based, Acinetobacter baumannii; details: xeruborbactam, meropenem 1× and 2× MIC; aztreonam 2× MIC; amdinocillin 2 μg/mL
Experimental: Single colonies of K. pneumoniae strain KPM1026a, A. baumannii strain ATCC 17978, and P. aeruginosa strain PAM1154 were picked from LB agar plates, inoculated in cation-adjusted Mueller-Hinton broth (CA-MHB), and incubated overnight at 30°C with rolling. Overnight cultures were diluted into fresh CA-MHB and incubated at 30°C, with rolling, until they reached an OD600 of ≈0.12 to 0.15 (equivalent to ~2 × 10^8 CFU/mL). Samples were then treated with compounds and incubated at 30°C, with rolling. After 1 or 2 h of treatment, cells were collected and stained with a dye mix containing FM4-64 (1 μg/mL), DAPI (4′,6-diamidino-2-phenylindole) (2 μg/mL), and SYTOX green (0.5 μM) (Molecular Probes, Invitrogen, or Thermo Fisher Scientific). Cells were transferred onto an agarose pad containing 1.2% agarose and 20% LB medium for microscopy. Microscopy was performed as previously described ([34]).

Escherichia coli = assay: Broth microdilution MIC (CLSI), Escherichia coli; assay type: cell-based; details: Escherichia coli
In short: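 Test organisms were KPC-producing clinical isolates (some enriched for porin mutations), matched isolates that lost KPC plasmids, and engineered porin/efflux mutant strains. Susceptibility was measured by broth microdilution following CLSI methods, using panels prepared in-house.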

How did the MIC (Staphylococcus aureus; Staphylococcus aureus, ATCC 29213 / MSSA, ATCC 29213, MSSA, read-out: MIC) turn out when `C[C@@H](O)[C@H]1C(=O)N2C(C(=O)O)=C(S[C@@H]3CN[C@H](C(=O)N(C)C)C3)[C@H](C)[C@H]12` [Meropenem] was run?
Its MIC is 0.06 µg/mL (≈ 0.156 µM).

What about the MIC (Staphylococcus aureus; Staphylococcus aureus, MRSA, sa001, MRSA, read-out: MIC) of the same compound?
Its MIC is 16 µg/mL (≈ 41.7 µM).

And the MIC (Staphylococcus aureus; Staphylococcus aureus, MRSA, sa010, MRSA, read-out: MIC)?
Its MIC is 32 µg/mL (≈ 83.4 µM).

What about the MIC (Staphylococcus aureus; Staphylococcus aureus, MRSA, sa013, MRSA, read-out: MIC) of the same compound?
Its MIC is 16 µg/mL (≈ 41.7 µM).

And the MIC (Staphylococcus aureus; Staphylococcus aureus, MRSA, sa014, MRSA, read-out: MIC)?
Its MIC is 8 µg/mL (≈ 20.9 µM).

And the MIC (Staphylococcus aureus; Staphylococcus aureus, MRSA, sa148, MRSA, read-out: MIC)?
The MIC was 32 µg/mL (≈ 83.4 µM).

What about the MIC (Staphylococcus aureus; Staphylococcus aureus, MRSA, sa150, MRSA, read-out: MIC) of the same compound?
The MIC was 32 µg/mL (≈ 83.4 µM).

And the MIC (Staphylococcus aureus; Staphylococcus aureus, MRSA, sa151, MRSA, read-out: MIC)?
The MIC was 32 µg/mL (≈ 83.4 µM).

And the MIC (Staphylococcus aureus; Staphylococcus aureus, MRSA, sa152, MRSA, read-out: MIC)?
The MIC was 4 µg/mL (≈ 10.4 µM).

What about the MIC (Staphylococcus aureus; Staphylococcus aureus, MRSA, sa153, MRSA, read-out: MIC) of the same compound?
Its MIC is 32 µg/mL (≈ 83.4 µM).

And the MIC (Staphylococcus aureus; Staphylococcus aureus, MRSA, sa278, MRSA, read-out: MIC)?
Its MIC is 32 µg/mL (≈ 83.4 µM).

And the MIC (Staphylococcus aureus; Staphylococcus aureus, MRSA, sa279, MRSA, read-out: MIC)?
Its MIC is 4 µg/mL (≈ 10.4 µM).

And the MIC (Staphylococcus aureus; Staphylococcus aureus, MRSA, sa280, MRSA, read-out: MIC)?
The MIC was 4 µg/mL (≈ 10.4 µM).

What about the MIC (Staphylococcus aureus; Staphylococcus aureus, MRSA, sa281, MRSA, read-out: MIC) of the same compound?
Its MIC is 32 µg/mL (≈ 83.4 µM).

And the MIC (Staphylococcus aureus; Staphylococcus aureus, MSSA)?
Its MIC is 0.125 µg/mL (≈ 0.326 µM).

What about the MIC (Staphylococcus aureus; Staphylococcus aureus, MSSA, sa007, MSSA, read-out: MIC) of the same compound?
The MIC was 0.25 µg/mL (≈ 0.652 µM).

And the MIC (Staphylococcus aureus; Staphylococcus aureus, MSSA, sa015, MSSA, read-out: MIC)?
The MIC was 0.25 µg/mL (≈ 0.652 µM).

What about the MIC (Staphylococcus aureus; sa002, MSSA) of the same compound?
Its MIC is 0.125 µg/mL (≈ 0.326 µM).

What about the MIC (Staphylococcus aureus; sa003, MSSA) of the same compound?
Its MIC is 0.125 µg/mL (≈ 0.326 µM).

And the MIC (Staphylococcus aureus; sa004, MSSA)?
The MIC was 0.125 µg/mL (≈ 0.326 µM).

And the MIC (Staphylococcus aureus; sa005, MSSA)?
Its MIC is 0.125 µg/mL (≈ 0.326 µM).

And the MIC (Staphylococcus aureus; sa006, MSSA)?
The MIC was 0.125 µg/mL (≈ 0.326 µM).

And the MIC (Staphylococcus aureus; sa008, MSSA)?
The MIC was 0.125 µg/mL (≈ 0.326 µM).

What about the MIC (Staphylococcus aureus; sa009, MSSA) of the same compound?
The MIC was 0.125 µg/mL (≈ 0.326 µM).

What about the MIC (Staphylococcus aureus; sa012, MSSA) of the same compound?
Its MIC is 0.125 µg/mL (≈ 0.326 µM).

And the MIC (Enterococcus faecalis; efs003)?
The MIC was 2 µg/mL (≈ 5.22 µM).

What about the MIC (Enterococcus faecalis; efs004) of the same compound?
The MIC was 4 µg/mL (≈ 10.4 µM).

And the MIC (Enterococcus faecalis; efs005)?
The MIC was 4 µg/mL (≈ 10.4 µM).

And the MIC (Enterococcus faecalis; efs006)?
The MIC was 2 µg/mL (≈ 5.22 µM).

And the MIC (Enterococcus faecalis; efs007)?
The MIC was 4 µg/mL (≈ 10.4 µM).

What about the MIC (Enterococcus faecalis; efs026) of the same compound?
Its MIC is 2 µg/mL (≈ 5.22 µM).

And the MIC (Enterococcus faecalis; efs071)?
Its MIC is 4 µg/mL (≈ 10.4 µM).

What about the MIC (Enterococcus faecalis; efs072) of the same compound?
Its MIC is 2 µg/mL (≈ 5.22 µM).

And the MIC (Enterococcus faecalis; efs073)?
Its MIC is 4 µg/mL (≈ 10.4 µM).

What about the MIC (Enterococcus faecalis; efs090) of the same compound?
The MIC was 1 µg/mL (≈ 2.61 µM).

And the MIC (Enterococcus faecalis; efs091)?
The MIC was 1 µg/mL (≈ 2.61 µM).

And the MIC (Enterococcus faecalis; efs092)?
The MIC was 8 µg/mL (≈ 20.9 µM).

What about the MIC (Enterococcus faecalis; efs093) of the same compound?
Its MIC is 16 µg/mL (≈ 41.7 µM).

And the MIC (Enterococcus faecalis; efs094)?
Its MIC is > 32 µg/mL.

What about the MIC (Enterococcus faecalis; efs095) of the same compound?
Its MIC is 4 µg/mL (≈ 10.4 µM).

What about the MIC (Enterococcus faecalis; efs096) of the same compound?
The MIC was 4 µg/mL (≈ 10.4 µM).

And the cellular morphology [1]?
Its cellular morphology is “swelling and rounding but not elongation”.

And the MIC (Escherichia coli)?
Its MIC is 0.03 µg/mL.

What about the MIC (Escherichia coli; MG1655) of the same compound?
Its MIC is 0.03 µg/mL and 0.08 µM.

And the MIC (Escherichia coli; strain ECM6001, ΔacrB)?
The MIC was 0.03 µg/mL.

What about the MIC (Escherichia coli; strain ECM6502, marR (AcrAB overexpression)) of the same compound?
Its MIC is 0.06 µg/mL.
